From ChEMBL document CHEMBL1201862, “PubChem BioAssay data set” (2004)
Calls of active or inactive are those of the source.

Experiments:
[1] = Artemis endonuclease inhibitor potency, dose response, biochemical, fluorescence intensity (AID 720701); assay type: functional;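 further: Artemis endonuclease enzyme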
Mu-type opioid receptor = Mu-type opioid receptor (Homo sapiens, UniProt P35372); assay type: functional, cell-based;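 further: U2OS cells with beta-arrestin recruitment to OPRM1 by beta-gal complementation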
Sequence of Mu-type opioid receptor (P35372 whole entry): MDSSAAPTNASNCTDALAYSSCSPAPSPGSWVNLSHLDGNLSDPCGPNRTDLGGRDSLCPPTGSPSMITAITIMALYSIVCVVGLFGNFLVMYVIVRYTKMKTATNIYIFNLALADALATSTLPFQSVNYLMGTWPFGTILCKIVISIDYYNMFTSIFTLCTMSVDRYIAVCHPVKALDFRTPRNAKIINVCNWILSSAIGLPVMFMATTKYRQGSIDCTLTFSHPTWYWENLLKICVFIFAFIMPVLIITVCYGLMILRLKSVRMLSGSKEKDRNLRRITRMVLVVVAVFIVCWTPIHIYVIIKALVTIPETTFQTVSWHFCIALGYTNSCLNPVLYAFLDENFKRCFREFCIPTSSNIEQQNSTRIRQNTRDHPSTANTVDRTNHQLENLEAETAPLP

[2] = molecular target: 5-hydroxytryptamine receptor 2A (Mus musculus, UniProt P35363); assay type: functional, cell-based;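 further: CHO-K1 cells with tagged receptor and beta-arrestin; agonist potency measured as compound-induced activation of the receptor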
Sequence of 5-hydroxytryptamine receptor 2A (P35363 whole entry): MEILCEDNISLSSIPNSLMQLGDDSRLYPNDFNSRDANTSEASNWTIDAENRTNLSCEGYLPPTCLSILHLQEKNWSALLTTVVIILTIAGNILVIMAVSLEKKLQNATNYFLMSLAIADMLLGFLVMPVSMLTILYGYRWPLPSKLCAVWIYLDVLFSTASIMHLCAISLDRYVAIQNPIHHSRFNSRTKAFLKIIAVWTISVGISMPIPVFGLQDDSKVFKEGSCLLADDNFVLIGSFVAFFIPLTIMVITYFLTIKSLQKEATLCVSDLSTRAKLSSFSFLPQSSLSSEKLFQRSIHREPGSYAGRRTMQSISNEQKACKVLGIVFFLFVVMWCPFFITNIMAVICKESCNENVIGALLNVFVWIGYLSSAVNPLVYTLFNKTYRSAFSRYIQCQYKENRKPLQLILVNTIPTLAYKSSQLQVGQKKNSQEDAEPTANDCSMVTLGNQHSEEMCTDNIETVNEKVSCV

[3] = P. falciparum Dd2 growth inhibitors, dose response, SYBR Green, cherry-picked samples (AID 1159567); assay type: functional, cell-based
[4] = HepG2 cell cytotoxicity, dose response, cytotoxicity control, cherry-picked samples (AID 1159577); assay type: functional, cell-based
[5] = molecular target: T1, Apoptotic protease-activating factor 1 (Homo sapiens, UniProt O14727); assay type: functional
T1 sequence (O14727 whole entry): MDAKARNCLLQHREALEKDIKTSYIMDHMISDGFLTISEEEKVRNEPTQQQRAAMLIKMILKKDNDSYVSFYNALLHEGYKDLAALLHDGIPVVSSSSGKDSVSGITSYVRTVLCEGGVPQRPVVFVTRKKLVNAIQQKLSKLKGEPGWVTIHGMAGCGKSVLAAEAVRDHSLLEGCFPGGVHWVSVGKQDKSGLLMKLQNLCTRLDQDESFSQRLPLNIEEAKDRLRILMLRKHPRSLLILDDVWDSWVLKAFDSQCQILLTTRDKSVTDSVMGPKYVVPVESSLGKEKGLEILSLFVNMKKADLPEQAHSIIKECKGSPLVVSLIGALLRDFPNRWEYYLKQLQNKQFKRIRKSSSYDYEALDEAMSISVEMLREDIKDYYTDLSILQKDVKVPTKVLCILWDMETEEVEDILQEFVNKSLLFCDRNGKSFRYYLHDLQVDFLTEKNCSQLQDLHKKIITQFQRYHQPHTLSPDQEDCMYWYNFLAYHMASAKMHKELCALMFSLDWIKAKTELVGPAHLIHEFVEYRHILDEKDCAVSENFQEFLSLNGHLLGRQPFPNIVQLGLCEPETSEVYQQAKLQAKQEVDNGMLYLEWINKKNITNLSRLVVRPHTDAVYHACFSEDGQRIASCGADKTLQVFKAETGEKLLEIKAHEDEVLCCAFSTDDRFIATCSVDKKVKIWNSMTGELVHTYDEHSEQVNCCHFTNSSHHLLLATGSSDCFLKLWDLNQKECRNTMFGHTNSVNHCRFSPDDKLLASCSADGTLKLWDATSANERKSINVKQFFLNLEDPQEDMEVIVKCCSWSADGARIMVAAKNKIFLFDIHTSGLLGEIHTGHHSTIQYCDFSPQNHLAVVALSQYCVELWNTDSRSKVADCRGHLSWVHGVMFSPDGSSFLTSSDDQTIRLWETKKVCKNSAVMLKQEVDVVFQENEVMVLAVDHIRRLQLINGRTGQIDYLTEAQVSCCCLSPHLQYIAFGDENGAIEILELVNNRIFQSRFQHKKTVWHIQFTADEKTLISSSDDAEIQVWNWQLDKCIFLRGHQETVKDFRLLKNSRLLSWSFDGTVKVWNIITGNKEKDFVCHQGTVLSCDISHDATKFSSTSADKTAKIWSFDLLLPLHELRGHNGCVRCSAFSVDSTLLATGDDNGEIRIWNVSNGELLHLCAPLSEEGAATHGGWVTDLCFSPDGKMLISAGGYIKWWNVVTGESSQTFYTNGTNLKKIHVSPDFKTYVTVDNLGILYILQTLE

Paired box protein Pax-8 = Paired box protein Pax-8 (Homo sapiens, UniProt Q06710); assay: inhibitors of PAX8-driven TPO luciferase reporter, dose response, RMG-I cells, cherry-pick (AID 687027); assay type: functional, cell-based;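 further: luciferase reporter driven by Pax8 target thyroperoxidase promoter measured by SteadyGlo luminescence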
Sequence of Paired box protein Pax-8 (Q06710 whole entry): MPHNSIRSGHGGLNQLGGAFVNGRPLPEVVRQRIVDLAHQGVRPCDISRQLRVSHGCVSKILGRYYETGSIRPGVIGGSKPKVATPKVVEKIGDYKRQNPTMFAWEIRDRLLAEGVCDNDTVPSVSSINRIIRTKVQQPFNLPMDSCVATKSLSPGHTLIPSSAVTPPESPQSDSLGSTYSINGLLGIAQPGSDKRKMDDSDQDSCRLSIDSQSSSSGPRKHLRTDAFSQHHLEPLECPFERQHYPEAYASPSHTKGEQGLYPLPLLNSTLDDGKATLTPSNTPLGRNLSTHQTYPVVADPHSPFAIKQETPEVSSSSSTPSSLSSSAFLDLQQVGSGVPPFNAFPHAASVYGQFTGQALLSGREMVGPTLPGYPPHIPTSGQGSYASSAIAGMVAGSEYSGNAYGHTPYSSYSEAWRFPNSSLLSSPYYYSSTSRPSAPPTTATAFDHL

[6] = NIH:OVCAR-3 ovarian cancer cell cytotoxicity, dose response, PAX8 inhibitor project, plate reader, dry powder samples (AID 743044); assay type: functional, cell-based
[7] = IGROV1 ovarian cancer cell cytotoxicity, dose response, PAX8 inhibitor project, plate reader, dry powder samples (AID 743043); assay type: functional, cell-based; settings: IGROV-1
[8] = cytotoxicity in OVCAR8 ovarian cancer cells, dose response, PAX8 project, cell-based, plate reader, dry powder samples (AID 743197); assay type: functional; settings: OVCAR-8
HeLa = assay: HeLa cell cytotoxicity, dose response, cytotoxicity control, ATP luminescence, cherry-pick samples (AID 687004); assay type: functional, cell-based; settings: Homo sapiens
HEK293 [9] = assay: HEK293T cell cytotoxicity, dose response, cytotoxicity control, ATP luminescence, cherry-pick samples (AID 687005); assay type: functional, cell-based; settings: Homo sapiens;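 further: cells exposed to compound for 48 hours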
[10] = HEK293 Cytotoxicity Assay Measured in Cell-Based System Using Plate Reader - 7071-01_Inhibitor_Dose_CherryPick_Activity_Set2.; assay type: functional
[11] = inhibitors of HIV Env-driven cell fusion, dose response, cherry-pick (AID 652057); assay type: functional, cell-based
[12] = off-target signal loss in HeLa-CEM21 co-culture – HeLa F-luc CTL cells, cherry-picked, counter-screen for HIV-1 Env fusion inhibitor project, dose response (AID 652040); assay type: functional, cell-based;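 further: potency for signal decrease marking cytotoxic or nonspecific inhibition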
[13] = THP-1 cell cytotoxicity, dose response, cytotoxicity control for Vif-APOBEC3G degradation inhibitor project, THP-1 cells (AID 1117359); assay type: functional; settings: Human immunodeficiency virus 1, THP-1
[14] = inhibitors of firefly luciferase expression or activity, dose response, H4 neuroglioma cells, luminescence (AID 1990); assay type: functional, cell-based
[15] = Luminescence Cell-Based Dose Response HTS to Identify Inhibitors of 5'UTR Stem-Loop Driven Prion Protein mRNA Translation in H4 Neuroglioblastoma Cells. [Related pubchem assays: 1827 (Project Summary), 1813 (Primary HTS)]; assay type: functional
[16] = molecular target: T2, Voltage-gated N-type calcium channel alpha-1B subunit/Amyloid beta A4 precursor protein-binding family A member 1 (Homo sapiens, UniProt Q00975+Q02410); assay type: protein assay
T2 sequence (Q00975 whole entry): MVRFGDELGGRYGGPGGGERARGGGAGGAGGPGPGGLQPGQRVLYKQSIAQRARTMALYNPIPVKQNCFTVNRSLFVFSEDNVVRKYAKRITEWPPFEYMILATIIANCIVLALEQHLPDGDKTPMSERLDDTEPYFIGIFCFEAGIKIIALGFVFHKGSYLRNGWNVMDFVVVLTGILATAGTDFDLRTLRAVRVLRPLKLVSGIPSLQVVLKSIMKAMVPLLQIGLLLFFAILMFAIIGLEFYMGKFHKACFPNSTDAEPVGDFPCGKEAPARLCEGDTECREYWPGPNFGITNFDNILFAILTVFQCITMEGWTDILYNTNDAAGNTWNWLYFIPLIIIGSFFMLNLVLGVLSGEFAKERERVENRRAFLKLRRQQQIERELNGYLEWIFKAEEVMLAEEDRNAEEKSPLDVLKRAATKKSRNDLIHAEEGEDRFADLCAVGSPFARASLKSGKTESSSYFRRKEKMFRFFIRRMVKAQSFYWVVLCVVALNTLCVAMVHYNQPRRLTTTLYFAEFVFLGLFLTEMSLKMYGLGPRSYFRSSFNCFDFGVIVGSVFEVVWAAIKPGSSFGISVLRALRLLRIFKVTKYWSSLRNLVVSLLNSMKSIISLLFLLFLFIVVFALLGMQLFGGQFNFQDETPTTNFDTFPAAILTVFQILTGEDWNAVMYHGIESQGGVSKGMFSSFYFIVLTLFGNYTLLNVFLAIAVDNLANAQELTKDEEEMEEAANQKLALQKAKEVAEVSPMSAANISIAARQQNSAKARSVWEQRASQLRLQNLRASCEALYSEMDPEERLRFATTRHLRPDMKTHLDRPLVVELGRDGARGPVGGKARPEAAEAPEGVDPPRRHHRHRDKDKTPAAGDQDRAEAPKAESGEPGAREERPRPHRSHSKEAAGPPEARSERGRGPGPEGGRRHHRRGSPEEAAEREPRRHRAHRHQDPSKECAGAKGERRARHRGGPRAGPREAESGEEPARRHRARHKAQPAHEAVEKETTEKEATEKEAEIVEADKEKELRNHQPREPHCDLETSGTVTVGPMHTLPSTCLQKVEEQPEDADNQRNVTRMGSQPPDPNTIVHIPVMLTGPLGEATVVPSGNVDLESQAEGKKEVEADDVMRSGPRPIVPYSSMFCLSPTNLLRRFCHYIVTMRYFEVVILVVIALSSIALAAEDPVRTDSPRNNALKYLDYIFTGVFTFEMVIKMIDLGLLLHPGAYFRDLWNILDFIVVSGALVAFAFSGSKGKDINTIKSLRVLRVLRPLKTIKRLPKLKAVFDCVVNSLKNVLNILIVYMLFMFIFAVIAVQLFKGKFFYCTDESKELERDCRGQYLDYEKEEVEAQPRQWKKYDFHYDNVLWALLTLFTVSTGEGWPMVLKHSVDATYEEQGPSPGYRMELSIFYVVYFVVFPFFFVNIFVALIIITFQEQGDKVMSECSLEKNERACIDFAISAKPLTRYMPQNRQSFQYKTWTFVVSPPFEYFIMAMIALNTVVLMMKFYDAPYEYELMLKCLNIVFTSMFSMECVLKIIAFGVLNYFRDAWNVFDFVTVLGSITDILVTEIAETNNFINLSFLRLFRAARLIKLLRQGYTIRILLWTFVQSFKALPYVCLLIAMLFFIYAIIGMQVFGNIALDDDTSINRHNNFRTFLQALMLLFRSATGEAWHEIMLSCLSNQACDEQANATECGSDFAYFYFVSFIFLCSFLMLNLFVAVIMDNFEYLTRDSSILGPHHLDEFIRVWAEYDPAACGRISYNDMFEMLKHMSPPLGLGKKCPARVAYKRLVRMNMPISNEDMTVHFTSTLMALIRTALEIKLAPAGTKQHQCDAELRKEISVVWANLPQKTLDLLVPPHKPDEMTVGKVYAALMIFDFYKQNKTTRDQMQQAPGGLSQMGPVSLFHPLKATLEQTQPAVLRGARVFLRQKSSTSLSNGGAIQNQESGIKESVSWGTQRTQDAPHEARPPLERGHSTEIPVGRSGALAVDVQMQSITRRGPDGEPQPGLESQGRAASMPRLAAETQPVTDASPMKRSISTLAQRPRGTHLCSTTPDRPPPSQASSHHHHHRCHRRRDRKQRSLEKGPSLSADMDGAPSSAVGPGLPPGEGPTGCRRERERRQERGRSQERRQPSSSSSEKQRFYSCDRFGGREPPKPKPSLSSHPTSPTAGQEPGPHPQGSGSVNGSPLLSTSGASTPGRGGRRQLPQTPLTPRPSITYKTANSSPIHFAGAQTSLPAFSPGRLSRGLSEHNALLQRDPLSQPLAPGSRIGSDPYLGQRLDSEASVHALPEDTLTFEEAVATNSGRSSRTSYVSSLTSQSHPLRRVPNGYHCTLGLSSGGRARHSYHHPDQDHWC
T2 sequence (Q02410 whole entry): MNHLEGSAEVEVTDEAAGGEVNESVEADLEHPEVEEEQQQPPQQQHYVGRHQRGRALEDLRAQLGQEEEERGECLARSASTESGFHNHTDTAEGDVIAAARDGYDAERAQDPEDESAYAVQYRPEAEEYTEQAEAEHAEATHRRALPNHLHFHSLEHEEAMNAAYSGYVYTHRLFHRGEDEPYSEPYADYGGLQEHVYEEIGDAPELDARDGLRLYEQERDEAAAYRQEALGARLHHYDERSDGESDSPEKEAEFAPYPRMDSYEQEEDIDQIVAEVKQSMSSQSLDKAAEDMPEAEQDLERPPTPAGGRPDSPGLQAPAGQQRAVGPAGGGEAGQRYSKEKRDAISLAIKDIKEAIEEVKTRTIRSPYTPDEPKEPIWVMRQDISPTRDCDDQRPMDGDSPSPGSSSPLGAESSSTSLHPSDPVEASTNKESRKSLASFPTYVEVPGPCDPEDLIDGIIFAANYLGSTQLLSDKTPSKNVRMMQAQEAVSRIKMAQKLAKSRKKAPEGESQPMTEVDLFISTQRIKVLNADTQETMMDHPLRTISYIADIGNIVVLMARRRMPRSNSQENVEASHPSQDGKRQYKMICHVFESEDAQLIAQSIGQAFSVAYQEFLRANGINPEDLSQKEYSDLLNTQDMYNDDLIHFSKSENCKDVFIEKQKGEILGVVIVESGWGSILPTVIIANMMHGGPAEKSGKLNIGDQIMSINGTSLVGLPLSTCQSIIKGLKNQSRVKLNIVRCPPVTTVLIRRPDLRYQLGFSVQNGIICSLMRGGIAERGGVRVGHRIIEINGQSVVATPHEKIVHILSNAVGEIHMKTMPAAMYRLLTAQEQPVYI

[17] = inhibitors of SNCA 5'UTR-driven reporter translation, confirmation, H4 neuroglioma cells, luminescence (AID 1988); assay type: functional, cell-based
[18] = molecular target: T2, Voltage-gated N-type calcium channel alpha-1B subunit/Amyloid beta A4 precursor protein-binding family A member 1; assay type: protein assay; remark: listed apart in the source
[19] = molecular target: T3, Sentrin-specific protease 8 (Homo sapiens, UniProt Q96LD8); assay type: functional
T3 sequence (Q96LD8 whole entry): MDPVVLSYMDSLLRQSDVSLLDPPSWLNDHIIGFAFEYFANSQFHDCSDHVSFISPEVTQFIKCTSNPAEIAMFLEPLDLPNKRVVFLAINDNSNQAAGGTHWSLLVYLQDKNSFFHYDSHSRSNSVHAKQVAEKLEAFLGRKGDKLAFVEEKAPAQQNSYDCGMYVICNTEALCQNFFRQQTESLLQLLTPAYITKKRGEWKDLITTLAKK

[20] = molecular target: T3, Sentrin-specific protease 8; assay type: functional; remark: listed apart in the source
HEK293 [21] = assay: inhibitors of LMP1-driven NF-kB reporter, dose response, cell-based, HEK293, luciferase, cherry-pick (AID 588343); assay type: functional; settings: Homo sapiens
[22] = A549 cell cytotoxicity, dose response, cytotoxicity control, plate reader, cherry-pick, antagonist series (AID 743412); assay type: functional, cell-based
[23] = LGR2 antagonists, dose response, cell-based, HEK293, CRE-luciferase reporter, cherry pick, set 2 (AID 743343); assay type: functional;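 further: transfected cells were stimulated with diluted bursicon conditioned medium after compound addition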
[24] = MC4R antagonists, dose response, counter-screen for LGR2 antagonist project, cell-based, plate reader, cherry pick (AID 743444); assay type: functional;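 further: transfected HEK 293 cells stimulated with alpha-MSH peptide; potency of inhibitors of the alpha-MSH evoked signal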
[25] = HEK293 cell cytotoxicity, dose response, cytotoxicity control, plate reader, cherry-picked samples (AID 743446); assay type: functional, cell-based
[26] = molecular target: NAD-dependent protein deacylase sirtuin-5, mitochondrial (Homo sapiens, UniProt Q9NXA8); assay: SIRT5 desuccinylase inhibitors, dose response, biochemical, fluorescence imaging, cherry-pick, set 5 (AID 720591);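 further: desuccinylation of succinyl peptide AMC substrate read as fluorescence after trypsin release; potency of inhibitors that lower fluorescence and may act on trypsin instead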
Sequence of NAD-dependent protein deacylase sirtuin-5, mitochondrial (Q9NXA8 whole entry): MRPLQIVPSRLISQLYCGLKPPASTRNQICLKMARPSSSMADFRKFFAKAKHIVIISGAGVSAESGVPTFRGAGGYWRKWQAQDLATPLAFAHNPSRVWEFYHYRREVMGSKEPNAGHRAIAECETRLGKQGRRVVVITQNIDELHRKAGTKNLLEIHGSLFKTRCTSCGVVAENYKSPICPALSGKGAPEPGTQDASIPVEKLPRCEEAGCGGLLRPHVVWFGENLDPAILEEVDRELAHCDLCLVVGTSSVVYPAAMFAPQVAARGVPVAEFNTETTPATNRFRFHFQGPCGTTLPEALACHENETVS

[27] = P. falciparum 3D7-ScDHODH growth inhibitors, dose response, SYBR Green, dry powder samples (AID 1159570); assay type: functional, cell-based;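 further: parasite growth measured after 72 hours of compound exposure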
[28] = P. falciparum Dd2 growth inhibitors, dose response, SYBR Green, dry powder samples (AID 1159566); assay type: functional, cell-based;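 further: potency for growth inhibition with lower SYBR green DNA signal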
[29] = P. falciparum ATP4 D1247Y mutant growth inhibitors, dose response, NITD609-resistant line, SYBR Green, dry powder (AID 1159571); assay type: functional, cell-based;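 further: parasites synchronized at ring stage by sorbitol before testing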
[30] = ZM109 Env clade C HIV-1 fusion inhibitors, dose response, HeLa effector, CEM target cells, luciferase, cherry-pick (AID 652058); assay type: functional, cell-based
[31] = inhibitors of clade B AD8 Env fusion, dose response, cell-based, cherry-pick (AID 652062); assay type: functional;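 further: luciferase signal from cell-cell fusion driven by HIV-1 clade B AD8 Env; potency is for inhibitors of fusion seen as a drop in luminescence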

CCCCC(=O)Nc1ccc(N2CCCC2)cc1
IC50 [1]: > 20 µM (inactive)

COc1ccc(CN2CCN(C(=O)c3ccco3)CC2)cc1OCc1ccccc1
EC50 (Mu-type opioid receptor): 92.5 µM (inactive)
EC50 [2]: 1.48 µM (active)

C[C@@H]1CN([C@H](C)CO)C(=O)c2cc(C#CCc3ccccc3)cnc2O[C@H]1CN(C)CC1CCCC1
AC50 [3]: 1.91 µM (active)
AC50 [4]: 13.5 µM (active)

O=C(Nc1cccc(C(F)(F)F)c1)c1ccc2nc(-c3ccco3)c(-c3ccco3)nc2c1
IC50 [5]: 43.9 µM (active)
IC50 [1]: > 20 µM (inactive)

C[C@H]1CCCCO[C@@H](CN(C)Cc2ccc(C(F)(F)F)cc2)[C@@H](C)CN([C@@H](C)CO)C(=O)c2cc(NC(=O)Nc3ccc4c(c3)OCO4)ccc2O1
AC50 (Paired box protein Pax-8): 7.11 µM (active)
AC50 [6]: 21.1 µM (active)
AC50 [7]: 49.6 µM (active)
AC50 [8]: 51.5 µM (active)

C/C=C/c1ccc([C@@H]2[C@H]3CN(C(=O)Nc4ccc(OC)cc4)CCCCN3[C@H]2CO)cc1
AC50 (HeLa): > 52 µM (inactive)
AC50 (HEK293 [9]): 24.4 µM (active)
AC50 [10]: 24.4 µM (active)

COc1cccc(CN2C[C@@H]3N[C@H](C2)[C@@H]3c2ccc(-c3cccc(C#N)c3)cc2)c1
AC50 [3]: 3.66 µM (active)
AC50 [4]: 9.19 µM (active)

Cc1ccc2c(c1)c1c3n2CCN(CCC#N)C3CCC1 (stereo not drawn)
AC50 [11]: 12.9 µM (active)
AC50 [12]: 1.89 µM (active)

C[C@@H]1CN([C@H](C)CO)C(=O)c2cc(NC(=O)Nc3cccc4ccccc34)ccc2O[C@@H]1CN(C)C(=O)Nc1ccccc1
AC50 (HeLa): 22.8 µM (active)

COc1ccc2ccccc2c1CN1CCN(C(=O)c2ccco2)CC1
EC50 (Mu-type opioid receptor): 92.5 µM (inactive)
EC50 [2]: 1.77 µM (active)

CN(C)N1C(N)=C(C#N)C(c2cccnc2)C2=C1CCCC2=O (stereo not drawn)
CC50 [13]: > 40 µM (active)

CCOC(=O)c1nn(-c2ccc(C)c(C)c2)c(=O)c2c(N)scc12
EC50 [14]: 13.8 µM (active)
EC50 [15]: > 120 µM (not active)
IC50 [16]: 9.97 µM (active)
EC50 [17]: > 120 µM (not active)
IC50 [18]: > 50 µM (inactive)
IC50 [5]: 42.2 µM (active)
IC50 [19]: 5.03 µM (active)
IC50 [20]: 5.63 µM (active)

O=C(C1CC1)N1CC(=O)N2[C@H](CO)[C@H](c3ccc(C#CCc4ccccc4)cc3)[C@H]2C1
AC50 [3]: 9.66 µM (active)
AC50 [4]: > 39 µM (inactive)

Cc1ccc(C(=O)Nc2ccc3ncccc3c2)cc1
AC50 (HEK293 [21]): 1.6 µM (active)
AC50 (HeLa): > 52 µM (inactive)
AC50 (HEK293 [9]): 20.5 µM (active)
AC50 [22]: > 52 µM (inactive)
AC50 [23]: 1.96 µM (active)
AC50 [24]: 3.88 µM (active)
AC50 [10]: 20.5 µM (active)
AC50 [25]: > 52 µM (inactive)

CC(C)NC(=O)Nc1ccc2c(c1)C(=O)N([C@@H](C)CO)C[C@@H](C)[C@@H](CN(C)S(=O)(=O)c1ccc(Cl)cc1)OCCCC[C@@H](C)O2
AC50 (HEK293 [9]): 20.6 µM (active)
AC50 [10]: 20.6 µM (active)

O=C(NCCO)Nc1ccc(Cl)cc1
AC50 [26]: > 30 µM (inactive)

CCn1c(N2CCN(S(=O)(=O)c3ccc(OC)cc3)CC2)nc2ccccc21
EC50 (Mu-type opioid receptor): 92.5 µM (inactive)
EC50 [2]: 30 µM (inactive)

Cc1ccc(S(=O)(=O)Nc2ccc3c(c2)CC(=O)N([C@H](C)CO)C[C@H](C)[C@H](CN(C)Cc2ccc(Cl)c(Cl)c2)O3)cc1
AC50 [22]: 24.7 µM (active)
AC50 [24]: 32.4 µM (active)
AC50 [25]: > 47 µM (inactive)

CN(C)C(=O)c1cccc(-c2cccc(-c3nc(C(=O)NC4CCCCC4)cc4c3[C@H](CCO)N([S@@+]([O-])C(C)(C)C)C4)c2)c1
AC50 [27]: 1.32 µM (active)
AC50 [3]: 2.05 µM (active)
AC50 [28]: 0.736 µM (active)
AC50 [29]: 0.933 µM (active)

Cc1c(C(=O)OCC(O)=C(C#N)c2nc3ccccc3[nH]2)oc2ccc(Br)cc12
AC50 [26]: > 30 µM (inactive)

O=C(NC12CC3CC(CC(C3)C1)C2)OCCNC1CCCCC1
AC50 [11]: 2.91 µM (active)
AC50 [30]: 6.43 µM (active)
AC50 [12]: 4.34 µM (active)
AC50 [31]: 7.98 µM (active)

O=C(N/N=C/c1cccs1)c1cc(-c2ccc3ccccc3c2)[nH]n1
IC50 [1]: > 20 µM (inactive)
